The record followed here is patent US20230131899A1, “INHIBITORS OF MICROBIALLY INDUCED AMYLOID” (Axial Therapeutics, Inc., priority 2020, published 2023).

Read-outs that look alike come from different tables or passages of the source. A value given as a limit tells only on which side of the number the result lay.

For this assay, the target named is T1, human α-synuclein (Homo sapiens, UniProt P37840).
T1 construct: the full-length gene for untagged human α-synuclein was inserted; made in house; host or cells: E. coli BL21(DE3), plasmid derived from pT7 or pET11a
Nature of the assay: Cell-free Thioflavin T assay of α-synuclein aggregation (αSyn ThT Assay). It counts as biochemical. Conditions: αSyn 50 μM. A digest of the protocol:
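Untagged full-length human α-synuclein from E. coli, 50 μM, with 20-40 μM ThT, 1% DMSO, compound at 20-100 μM and a glass bead, 37° C. with shaking. Fluorescence (ex 438/em 495 nm) read hourly to 73 h. Compound-only background subtracted and values normalised to vehicle at 36-72 h or final timepoint, giving % inhibition.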

The mark [1] stands for this setting: class symbol, compounds 100 μM, read-out: αSyn ThT Assay % inhibition, activity range.
The mark [2] stands for this setting: mean percent inhibition relative to DMSO control, compounds 100 μM, read-out: αSyn ThT Assay % inhibition.
Setting [3] is: mean % inhibition of αSyn aggregation relative to DMSO control, compounds at 100 μM, read-out: αSyn ThT Assay % Inhibition.
[4] abbreviates: compounds at 100 μM, class symbol, read-out: αSyn ThT Assay % Inhibition (activity range).

On to `O=C(O)C1CN(CCC2CCCCC2)c2c(-c3cccc(C(F)(F)F)c3)c(Cc3cccc4ccccc34)c(Cl)c(=O)n21` (stereo not shown) [Compound 207, 6-chloro-1-(2-cyclohexylethyl)-7-(naphthalen-1-ylmethyl)-5-oxo-8-(3-(trifluoromethyl)phenyl)-1,2,3,5-tetrahydroimidazo[1,2-a]pyridine-3-carboxylic acid], for which the inhibition (as a rule, the percentage by which the read-out fell short of the control) at 100 µM by setting is: under setting [1], greater than 60%; under setting [2], 71%.
For `O=C(O)C1CN(Cc2ccccc2)c2c(-c3cccc(C(F)(F)F)c3)c(Cc3cccc4ccccc34)c(F)c(=O)n21` (stereo not shown) [Compound 194, 1-benzyl-6-fluoro-7-(naphthalen-1-ylmethyl)-5-oxo-8-(3-(trifluoromethyl)phenyl)-1,2,3,5-tetrahydroimidazo[1,2-a]pyridine-3-carboxylic acid] the same measures were 31 to 60% and 57%.
The like results for `CC(C)N1CC(C(=O)O)n2c(c(-c3cccc(C(F)(F)F)c3)c(Cc3cccc4ccccc34)c(C(N)=O)c2=O)S1(=O)=O` (stereo not shown) [Compound 175, 7-carbamoyl-2-isopropyl-8-(naphthalen-1-ylmethyl)-6-oxo-9-(3-(trifluoromethyl)phenyl)-3,4-dihydro-2H,6H-pyrido[1,2-e][1,2,5]thiadiazine-4-carboxylic acid 1,1-dioxide] were, in that order, greater than 60% and 98%.
On to `CCCN1CC(C(=O)O)n2c(c(-c3cccc(C(F)(F)F)c3)c(Cc3cccc4ccccc34)c(NC(=O)CC)c2=O)S1(=O)=O` (stereo not shown) [Compound 153, 8-(naphthalen-1-ylmethyl)-6-oxo-7-propionamido-2-propyl-9-(3-(trifluoromethyl)phenyl)-3,4-dihydro-2H,6H-pyrido[1,2-e][1,2,5]thiadiazine-4-carboxylic acid 1,1-dioxide], for which the inhibition at 100 µM runs as follows: under setting [1], 31 to 60%; under setting [2], 48%.
`O=C(O)C1CN(C[C@H](O)CO)S(=O)(=O)c2c(-c3cccc(C(F)(F)F)c3)c(Cc3cccc4ccccc34)cc(=O)n21` (stereo partly drawn) [Compound 065a, 2-((S)-2,3-dihydroxypropyl)-8-(naphthalen-1-ylmethyl)-6-oxo-9-(3-(trifluoromethyl)phenyl)-3,4-dihydro-2H,6H-pyrido[1,2-e][1,2,5]thiadiazine-4-carboxylic acid 1,1-dioxide]: the inhibition at 100 µM runs as follows: under setting [3], 32%; under setting [4], 31 to 60%.
Consider `O=C(O)C1CN(Cc2ccncc2)c2c(-c3cccc(C(F)(F)F)c3)c(Cc3cccc4ccccc34)c(Cl)c(=O)n21` (stereo not shown) [Compound 174, 6-chloro-7-(naphthalen-1-ylmethyl)-5-oxo-1-(pyridin-4-ylmethyl)-8-(3-(trifluoromethyl)phenyl)-1,2,3,5-tetrahydroimidazo[1,2-a]pyridine-3-carboxylic acid], for which the inhibition at 100 µM is 11 to 30% under setting [1] and 23% under setting [2].
As to `CCCCCN1CC(C(=O)O)n2c(c(-c3cccc(C(F)(F)F)c3)c(Cc3cccc4ccccc34)cc2=O)S1(=O)=O` (single isomer, unassigned) [Compound 025a, 8-(naphthalen-1-ylmethyl)-6-oxo-2-pentyl-9-(3-(trifluoromethyl)phenyl)-3,4-dihydro-2H,6H-pyrido[1,2-e][1,2,5]thiadiazine-4-carboxylic acid 1,1-dioxide], the inhibition at 100 µM is, setting by setting: under setting [3], 50%; under setting [4], 31 to 60%.
For `O=C(O)C1n2c(c(-c3cccc(C(F)(F)F)c3)c(Cc3cccc4ccccc34)nc2=O)SC12CCCC2` (stereo not shown) [Compound 053, 7′-(naphthalen-1-ylmethyl)-5′-oxo-8′-(3-(trifluoromethyl)phenyl)-3′H,5′H-spiro[cyclopentane-1,2′-thiazolo[3,2-c]pyrimidine]-3′-carboxylic acid] the same measures were 65% and greater than 60%.
